Experimental data published in patent US9416124B2, “Substituted 2-alkyl-1-OXO-N-phenyl-3-heteroaryl-1,2,3,4-tetrahydroisoquinoline-4-carboxamides for antimalarial therapies” (ST. JUDE CHILDREN'S RESEARCH HOSPITAL, priority 2011, dated 2016).

Tested on: P. falciparum 3D7
Experiment: P. falciparum drug susceptibility assay (3D7)
Format: cell-based, Plasmodium falciparum
Details: 3D7 strain; racemate unless indicated; read-out: 3D7_EC50
Method: Parasites were grown as previously described in Mallari, J. P., Guiguemde, W. A., and Guy, R. K., Antimalarial activity of thiosemicarbazones and purine derived nitriles, Bioorg Med Chem Lett 19 (13), 3546 (2009). […] DMSO inhibitor stock solutions were pin-transferred (V&P Scientific) into the assay plate and background fluorescence was measured in both relevant channels (485 nm /535 nm, 612 nm /665 nm) in an Envision plate reader (PerkinElmer). Then 20 μl of a synchronized culture suspension (1% rings, 10% hematocrit) were added per well, thus making a final hematocrit and parasitemia of 5% and 1% respectively. Assay plates were incubated for 72 h and parasitemia was determined based on a modified protocol. (Smilkstein, M. et al., Simple and inexpensive fluorescence-based technique for high-throughput antimalarial drug screening. Antimicrob Agents Chemother 48 (5), 1803 (2004)). Briefly, 5 μl of mixed DNA dye solution in RPMI (5X SYBR Green I, 1 μM YOYO-3, 1% v/v Triton X-100, 1 mg/ml saponin) were added per well, assay plates were shaken for 30 s at 2000 rpm, incubated in the dark for 4 h, then read as previously described.

EC50 [nM]	Compound
17	N#Cc1cc(NC(=O)C2c3ccccc3C(=O)N(CC(F)(F)F)C2c2cccnc2)ccc1F (single isomer, unassigned; isomer d) [Example 6 d-isomer, d-N-(3-cyano-4-fluoro) -1-Oxo-3-pyridin-3-yl-2-(2,2,2-trifluoro-ethyl)-1,2,3,4-tetrahydro-isoquinoline-4-carboxamide]
8	N#Cc1cc(F)cc(NC(=O)C2c3ccccc3C(=O)N(CC(F)(F)F)C2c2cn[nH]c2)c1 (single isomer, unassigned; isomer d) [Example 20 d-isomer, d-N-(3-cyano-5-fluorophenyl)-1-oxo-3-(1H-pyrazol-4-yl)-2-(2,2,2-trifluoroethyl)-1,2,3,4-tetrahydroisoquinoline-4-carboxamide]

Same assay, conditions: Plasmodium falciparum; 3D7 strain; racemate unless indicated; read-out: 3D7_EC50

EC50 [nM]	Compound
19	O=C(Nc1cccc(OC(F)(F)F)c1)[C@H]1c2ccccc2C(=O)N(CC(F)(F)F)[C@@H]1c1cn[nH]c1 (racemic) [Example 26, 1-oxo-3-(1H-pyrazol-4-yl)-2-(2,2,2-trifluorocthyl)-N-(3-(trifluoromethoxy)phenyl)-1,2,3,4-tetrahydroisoquinoline-4-carboxamide]
8	CC(C)CN1C(=O)c2ccccc2[C@H](C(=O)Nc2cccc(OC(F)(F)F)c2)[C@H]1c1cnn(C)c1 (racemic) [Example 27, 2-isobutyl-3-(1-methyl-1H-pyrazol-4-yl)-1-oxo-N-(3-(trifluoromethoxy)phenyl)-1,2,3,4-tetrahydroisoquinoline-4-carboxamide]
25	CC(C)CN1C(=O)c2ccccc2[C@H](C(=O)Nc2cccc(OC(F)(F)F)c2)[C@H]1c1cccnc1 (racemic) [Example 29, 2-isobutyl-1-oxo-3-(pyridin-3-yl)-N-(3-(trifluoromethoxy)phenyl)-1,2,3,4-tetrahydroisoquinoline-4-carboxamide]
25	O=C(Nc1cccc(OC(F)(F)F)c1)[C@H]1c2ccccc2C(=O)N(CC(F)(F)F)[C@@H]1c1cccnc1 (racemic) [Example 30, 1-oxo-3-(pyridin-3-yl)-2-(2,2,2-trifluoroethyl)-N-(3-(trifluoromethoxy)phenyl)-1,2,3,4-tetrahydroisoquinoline-4-carboxamide]
13	CC(C)CN1C(=O)c2ccccc2[C@H](C(=O)Nc2ccc(F)c(OC(F)(F)F)c2)[C@H]1c1cn[nH]c1 (racemic) [Example 31, N-(4-fluoro-3-(trifluoromethoxy)phenyl)-2-isobutyl-1-oxo-3-(1H-pyrazol-4-yl)-1,2,3,4-tetrahydroisoquinoline-4-carboxamide]
22	O=C(Nc1ccc(F)c(OC(F)(F)F)c1)[C@H]1c2ccccc2C(=O)N(CC(F)(F)F)[C@@H]1c1cn[nH]c1 (racemic) [Example 32, N-(4-fluoro-3-(trifluoromethoxy)phenyl)-1-oxo-3-(1H-pyrazol-4-yl)-2-(2,2,2-trifluoroethyl)-1,2,3,4-tetrahydroisoquinoline-4-carboxamide]
17	CC(C)CN1C(=O)c2ccccc2[C@H](C(=O)Nc2ccc(F)c(OC(F)(F)F)c2)[C@H]1c1cnn(C)c1 (racemic) [Example 33, N-(4-fluoro-3-(trifluoromethoxy)phenyl)-2-isobutyl-3-(1-methyl-1H-pyrazol-4-yl)-1-oxo-1,2,3,4-tetrahydroisoquinoline-4-carboxamide]
63	CC(C)CN1C(=O)c2ccccc2[C@H](C(=O)Nc2ccc(F)c(OC(F)(F)F)c2)[C@H]1c1cccnc1 (racemic) [Example 35, N-(4-fluoro-3-(trifluoromethoxy)phenyl)-2-isobutyl-1-oxo-3-(pyridin-3-yl)-1,2,3,4-tetrahydroisoquinoline-4-carboxamide]
89	O=C(Nc1ccc(F)c(OC(F)(F)F)c1)[C@H]1c2ccccc2C(=O)N(CC(F)(F)F)[C@@H]1c1cccnc1 (racemic) [Example 36, N-(4-fluoro-3-(trifluoromethoxy)phenyl)-1-oxo-3-(pyridin-3-yl)-2-(2,2,2-trifluoroethyl)-1,2,3,4-tetrahydroisoquinoline-4-carboxamide]
61	O=C(Nc1cc(F)cc(OC(F)(F)F)c1)[C@H]1c2ccccc2C(=O)N(CC(F)(F)F)[C@@H]1c1cn[nH]c1 (racemic) [Example 38, N-(3-fluoro-5-(trifluoromethoxy)phenyl)-1-oxo-3-(1H-pyrazol-4-yl)-2-(2,2,2-trifluoroethyl)-1,2,3,4-tetrahydroisoquinoline-4-carboxamide]
144	O=C(Nc1cc(F)cc(OC(F)(F)F)c1)[C@H]1c2ccccc2C(=O)N(CC(F)(F)F)[C@@H]1c1cccnc1 (racemic) [Example 42, N-(3-fluoro-5-(trifluoromethoxy)phenyl)-1-oxo-3-(pyridin-3-yl)-2-(2,2,2-trifluoroethyl)-1,2,3,4-tetrahydroisoquinoline-4-carboxamide]
20	CC(C)CN1C(=O)c2cc(F)ccc2[C@H](C(=O)Nc2ccc(F)c(C#N)c2)[C@H]1c1cnn(C)c1 (racemic) [Example 45, N-(3-cyano-4-fluorophenyl)-7-fluoro-2-isobutyl-3-(1-methyl-1H-pyrazol-4-yl)-1-oxo-1,2,3,4-tetrahydroisoquinoline-4-carboxamide]
3	CC(C)CN1C(=O)c2cc(F)ccc2[C@H](C(=O)Nc2cc(Cl)cc(C#N)c2)[C@H]1c1cnn(C)c1 (racemic) [Example 46, N-(3-chloro-5-cyanophenyl)-7-fluoro-2-isobutyl-3-(1-methyl-1H-pyrazol-4-yl)-1-oxo-1,2,3,4-tetrahydroisoquinoline-4-carboxamide]
7	CC(C)CN1C(=O)c2ccc(F)cc2[C@H](C(=O)Nc2cccc(C#N)c2)[C@H]1c1cnn(C)c1 (racemic) [Example 47, N-(3-cyanophenyl)-6-fluoro-2-isobutyl-3-(1-methyl-1H-pyrazol-4-yl)-1-oxo-1,2,3,4-tetrahydroisoquinoline-4-carboxamide]
19	CC(C)CN1C(=O)c2ccc(F)cc2[C@H](C(=O)Nc2cc(F)cc(C#N)c2)[C@H]1c1cnn(C)c1 (racemic) [Example 48, N-(3-cyano-5-fluorophenyl)-6-fluoro-2-isobutyl-3-(1-methyl-1H-pyrazol-4-yl)-1-oxo-1,2,3,4-tetrahydroisoquinoline-4-carboxamide]
5	CC(C)CN1C(=O)c2ccc(F)cc2[C@H](C(=O)Nc2cc(F)cc(C#N)c2)[C@H]1c1ccc(C#N)s1 (racemic) [Example 51, N-(3-cyano-5-fluorophenyl)-3-(5-cyanothiophen-2-yl)-6-fluoro-2-isobutyl-1-oxo-1,2,3,4-tetrahydroisoquinoline-4-carboxamide]
150	COc1ccc2c(c1)C(=O)N(CC(C)C)[C@H](c1cccnc1)[C@H]2C(=O)Nc1ccc(F)c(C#N)c1 (racemic) [Example 53, N-(3-cyano-4-fluorophenyl)-2-isobutyl-7-methoxy-1-oxo-3-(pyridin-3-yl)-1,2,3,4-tetrahydroisoquinoline-4-carboxamide]
11	N#Cc1ccc([C@@H]2[C@@H](C(=O)Nc3ccc(F)c(C#N)c3)c3ccccc3C(=O)N2CC2CC2)s1 (racemic) [Example 54, N-(3-cyano-4-fluorophenyl)-3-(5-cyanothiophen-2-yl)-2-(cyclopropylmethyl)-1-oxo-1,2,3,4-tetrahydroisoquinoline-4-carboxamide]
7	N#Cc1cc(NC(=O)[C@H]2c3cc(F)c(F)cc3C(=O)N(CC(F)(F)F)[C@@H]2c2cn[nH]c2)ccc1F (racemic) [Example 59]

Same assay, conditions: separated enantiomers, assayed as described in 4a; listed as 2 l; read-out: Potency (nM, 3D7 strain)

EC50 [nM]	Compound
303	N#Cc1cc(NC(=O)C2c3ccccc3C(=O)N(CC(F)(F)F)C2c2cn[nH]c2)ccc1F (single isomer, unassigned) [Example 2 l-isomer]

Same assay, conditions: separated enantiomers, assayed as described in 4a; listed as 6 l; read-out: Potency (nM, 3D7 strain)

EC50 [nM]	Compound
477	N#Cc1cc(NC(=O)C2c3ccccc3C(=O)N(CC(F)(F)F)C2c2cccnc2)ccc1F (single isomer, unassigned) [Example 6 l-isomer, l-N-(3-cyano-4-fluoro)-1-Oxo-3-pyridin-3-yl-2-(2,2,2-trifluoro-ethyl)-1,2,3,4-tetrahydro isoquinoline-4-carboxamide]

Same assay, conditions: separated enantiomers, assayed as described in 4a; listed as 6 d; read-out: Potency (nM, 3D7 strain)

EC50 [nM]	Compound
15	N#Cc1cc(NC(=O)C2c3ccccc3C(=O)N(CC(F)(F)F)C2c2cccnc2)ccc1F (single isomer, unassigned; isomer d) [Example 6 d-isomer, d-N-(3-cyano-4-fluoro) -1-Oxo-3-pyridin-3-yl-2-(2,2,2-trifluoro-ethyl)-1,2,3,4-tetrahydro-isoquinoline-4-carboxamide]

Same assay, conditions: separated enantiomers, assayed as described in 4a; read-out: Potency (nM, 3D7 strain)

EC50 [nM]	Compound
11	N#Cc1cc(F)cc(NC(=O)C2c3ccccc3C(=O)N(CC(F)(F)F)C2c2cn[nH]c2)c1 (single isomer, unassigned; isomer d) [Example 20 d-isomer, d-N-(3-cyano-5-fluorophenyl)-1-oxo-3-(1H-pyrazol-4-yl)-2-(2,2,2-trifluoroethyl)-1,2,3,4-tetrahydroisoquinoline-4-carboxamide]
